Molecular target: Multidrug resistance-associated protein 1 (Homo sapiens, UniProt P33527)
Assay: viability protection against doxorubicin, MRP-1 line – cell-based, doxorubicin EC50 shift, dose response (AID 844)

Multidrug resistance-associated protein 1, sequence (P33527 whole entry): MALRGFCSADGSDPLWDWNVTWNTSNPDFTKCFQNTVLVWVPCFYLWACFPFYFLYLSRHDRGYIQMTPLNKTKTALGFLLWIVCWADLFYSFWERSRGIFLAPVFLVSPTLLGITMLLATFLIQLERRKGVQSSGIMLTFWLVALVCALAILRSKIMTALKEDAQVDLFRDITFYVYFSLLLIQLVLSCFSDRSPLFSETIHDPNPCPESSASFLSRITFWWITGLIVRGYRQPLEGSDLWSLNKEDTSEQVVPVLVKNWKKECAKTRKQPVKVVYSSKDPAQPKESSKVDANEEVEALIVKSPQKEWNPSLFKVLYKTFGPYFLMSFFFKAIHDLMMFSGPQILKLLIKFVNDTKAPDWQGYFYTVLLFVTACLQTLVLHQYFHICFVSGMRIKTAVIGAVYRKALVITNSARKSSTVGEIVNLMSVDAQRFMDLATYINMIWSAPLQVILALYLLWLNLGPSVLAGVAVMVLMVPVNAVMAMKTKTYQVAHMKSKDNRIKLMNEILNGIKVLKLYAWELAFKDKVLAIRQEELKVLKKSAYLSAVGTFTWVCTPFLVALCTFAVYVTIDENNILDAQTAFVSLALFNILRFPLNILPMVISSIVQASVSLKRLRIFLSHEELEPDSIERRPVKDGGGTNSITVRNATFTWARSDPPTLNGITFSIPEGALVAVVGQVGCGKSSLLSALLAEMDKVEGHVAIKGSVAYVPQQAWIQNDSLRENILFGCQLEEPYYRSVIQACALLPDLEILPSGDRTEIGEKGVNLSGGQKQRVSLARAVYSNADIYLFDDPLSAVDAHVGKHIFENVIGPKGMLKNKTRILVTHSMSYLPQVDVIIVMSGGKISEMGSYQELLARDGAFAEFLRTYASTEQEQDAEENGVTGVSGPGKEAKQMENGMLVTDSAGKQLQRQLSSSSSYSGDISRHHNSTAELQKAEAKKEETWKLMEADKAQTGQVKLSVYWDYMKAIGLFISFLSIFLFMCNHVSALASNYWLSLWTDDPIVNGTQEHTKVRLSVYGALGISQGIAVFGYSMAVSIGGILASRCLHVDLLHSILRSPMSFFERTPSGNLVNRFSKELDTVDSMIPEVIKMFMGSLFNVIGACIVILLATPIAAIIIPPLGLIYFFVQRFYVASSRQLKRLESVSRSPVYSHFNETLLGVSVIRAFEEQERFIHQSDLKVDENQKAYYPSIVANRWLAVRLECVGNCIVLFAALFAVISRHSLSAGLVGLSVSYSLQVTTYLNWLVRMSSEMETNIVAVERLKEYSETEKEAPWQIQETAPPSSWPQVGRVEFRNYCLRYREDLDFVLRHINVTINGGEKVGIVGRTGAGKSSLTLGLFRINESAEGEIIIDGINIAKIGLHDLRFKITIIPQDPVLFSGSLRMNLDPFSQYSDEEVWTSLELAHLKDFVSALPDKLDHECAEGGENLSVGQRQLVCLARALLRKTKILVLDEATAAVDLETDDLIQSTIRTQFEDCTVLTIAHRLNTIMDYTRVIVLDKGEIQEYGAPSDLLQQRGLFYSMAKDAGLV

Structure (SMILES) | EC50 [µM]
COc1ccc(CN=Nc2nc(-c3ccc(Cl)cc3)cc(C(F)(F)F)n2)cc1OC [4-(4-chlorophenyl)-N-[(3,4-dimethoxyphenyl)methylideneamino]-6-(trifluoromethyl)-2-pyrimidinamine] | 1.9
O=C(CCCCl)Nc1cc(=O)n(-c2ccccc2)[nH]1 [4-Chloro-N-(5-oxo-1-phenyl-4,5-dihydro-1H-pyrazol-3-yl)-butyramide] | 8.43
CCN(CC)S(=O)(=O)c1ccc(N=NC(C#N)C#N)cc1 [4-[2-(dicyanomethylene)hydrazino]-N,N-diethylbenzenesulfonamide] | 3.7
O=C(O)c1ccc(N=NCc2ccc(F)c(F)c2)cc1 [4-[2-[(3,4-difluorophenyl)methylidene]hydrazinyl]benzoic acid;sulfuric acid] | 7.07
N#Cc1ccc(-n2c(O)c3[nH][nH]c(C(=O)c4ccc5ccccc5n4)c-3c2=O)cc1 [4-[(3aS,6aS)-4,6-dioxo-3-[oxo(2-quinolinyl)methyl]-3a,6a-dihydro-1H-pyrrolo[3,4-c]pyrazol-5-yl]benzonitrile] | 7
Cc1cccc(Cc2sc(Nc3ccccn3)nc2O)c1 [5-(3-Methyl-benzyl)-2-(pyridin-2-ylimino)-thiazolidin-4-one] | 6.22
O=C1CC(=O)CC(c2ccc(Cl)cc2)C1 [5-(4-chlorophenyl)-3-hydroxy-1-cyclohex-2-enone] | 5.6
CC1=CC([N+](=O)[O-])=CC(C=NNC(=O)c2cc(C)n[nH]2)C1=O (centres undefined) [5-methyl-N'-[(E)-(5-methyl-3-nitro-6-oxo-1-cyclohexa-2,4-dienylidene)methyl]-1H-pyrazole-3-carbohydrazide] | 2.87
COc1ccc(CN=Nc2cc(OC)ncn2)cc1 [6-methoxy-N-[(4-methoxyphenyl)methylideneamino]-4-pyrimidinamine] | 3.1
C=CCc1c(C)nc(-c2ccccc2)nc1N=NCc1ccccc1 [6-methyl-2-phenyl-N-[(phenylmethylene)amino]-5-prop-2-enyl-4-pyrimidinamine] | 4.7
O=C1Nc2ccccc2[C@@]12N[C@@H](Cc1ccc(O)cc1)c1c2c(O)n(-c2ccc(F)cc2)c1O [(1S,3R,3aR,6aS)-5-(4-fluorophenyl)-1-(4-hydroxybenzyl)spiro[1,2,3a,6a-tetrahydropyrrolo[3,4-c]pyrrole-3,3'-indoline]-2',4,6-trione] | 7.87
O=C1c2ccccc2SC1/C=N/c1cc([N+](=O)[O-])ccc1O (centres undefined) [(2Z)-2-[[(5-nitro-2-oxidanyl-phenyl)amino]methylidene]-1-benzothiophen-3-one] | 0.457
CCOc1ccc2c(c1)C(N=O)C(=O)N2C (centres undefined) [(3E)-5-ethoxy-1-methyl-1H-indole-2,3-dione 3-oxime] | 3.14
O=C1Nc2ccc(F)cc2C12NC(Cc1ccc(O)cc1)c1c2c(O)n(-c2ccc(F)cc2)c1O [(3aR,6aS)-5'-fluoranyl-5-(4-fluorophenyl)-1-[(4-hydroxyphenyl)methyl]spiro[1,2,3a,6a-tetrahydropyrrolo[3,4-c]pyrrole-3,3'-1H-indole]-2',4,6-trione] | 7.52
Cc1cc(C)nc(N=NCc2cccc3ccccc23)n1 [(4,6-dimethylpyrimidin-2-yl)-(1-naphthylmethyleneamino)amine] | 5.39
COc1cc(C2NC(=O)N=C(C)C2C(=O)OCc2ccc(C)cc2)cc(OC)c1O (centres undefined) [(4-methylphenyl)methyl 4-(3,5-dimethoxy-4-oxidanyl-phenyl)-6-methyl-2-oxidanylidene-3,4-dihydro-1H-pyrimidine-5-carboxylate] | 3.65
Cc1ccc(C)c(C(=O)C2C(=O)C(=O)N(CCCn3ccnc3)C2c2ccncc2)c1 (centres undefined) [(4E)-4-[(2,5-dimethylphenyl)-hydroxy-methylene]-1-(3-imidazol-1-ylpropyl)-5-(4-pyridyl)pyrrolidine-2,3-quinone] | 6.31

Structure (SMILES) | EC50 [µM]
Cc1cc(N=NCc2ccc(O)cc2O)nc(-n2nc(C)cc2C)n1 [(4E)-4-[[2-[2-(3,5-dimethylpyrazol-1-yl)-6-methyl-pyrimidin-4-yl]hydrazinyl]methylidene]-3-oxidanyl-cyclohexa-2,5-dien-1-one] | < 0.195
C=CCc1c(C)nc(-c2ccccc2)nc1N=NC(C)c1ccccc1 (centres undefined) [(5-allyl-6-methyl-2-phenyl-pyrimidin-4-yl)-(1-phenylethylideneamino)amine] | 2.34
C=CCc1c(C)nc(-c2ccccc2)nc1N=NC(C)c1ccc(N)cc1 (centres undefined) [(5-allyl-6-methyl-2-phenyl-pyrimidin-4-yl)-[1-(4-aminophenyl)ethylideneamino]amine] | 6.99
CCCCCCN1C(=O)C(=Cc2c[nH]nc2-c2ccccc2)SC1=S [(5Z)-3-hexyl-5-[(5-phenyl-1H-pyrazol-4-yl)methylidene]-2-sulfanylidene-1,3-thiazolidin-4-one] | 4.16
CCc1ccc(C(C)N=Nc2cc(Cl)nc(C)n2)cc1 (centres undefined) [(6-chloro-2-methyl-pyrimidin-4-yl)-[1-(4-ethylphenyl)ethylideneamino]amine] | 3.75
COC(=O)C(C=Nc1ccc(O)cc1)[N+](=O)[O-] (centres undefined) [(Z)-3-(4-hydroxyanilino)-2-nitro-2-propenoic acid methyl ester] | 1.12
CCN(C1CCCCC1)S(=O)(=O)c1cc(C)ccc1OC [MLS000028538] | 3.33
O=C(Nc1nc(O)cs1)c1ccccc1 [MLS000106877] | 3.78
O=C1/C(=C/c2nc3ccccc3[nH]2)SC(=S)N1c1ccc(F)cc1 [MLS000331487] | 3.39
O=C(CC=NNC(=O)c1ccccc1)c1ccc(Br)cc1 [MLS000532545] | 2.86
COc1ccc(NC(=O)Cc2c(O)n(-c3ccc(Cl)cc3)c(=S)n2NC(=O)c2cccc(F)c2)cc1 [MLS000590171] | 3.59
COc1ccc(NC(=O)Cc2c(O)n(-c3ccc(F)cc3)c(=S)n2NC(=O)c2ccccc2)cc1 [MLS000592105] | 4.29
COc1cccc(C=NNC(=O)c2[nH][nH]c(=O)c2C)c1O [N'-[(E)-(5-methoxy-6-oxidanylidene-cyclohexa-2,4-dien-1-ylidene)methyl]-4-methyl-5-oxidanylidene-1,4-dihydropyrazole-3-carbohydrazide] | 6.47
COc1cccc(C2C(C(=O)Nc3nc4ccccc4s3)=C(C)N=C3CC(C)(C)CC(=O)C32)c1OC (centres undefined) [N-(1,3-benzothiazol-2-yl)-4-(2,3-dimethoxyphenyl)-2,7,7-trimethyl-5-oxo-1,4,6,8-tetrahydroquinoline-3-carboxamide] | 1.6
Oc1csc(=S)n1N=C1CCCCCC1 [SMR000212426] | 4.99
COc1ccc(CN=Nc2cc(C)nc(-n3nc(C)cc3C)n2)cc1 [SMR000212741] | 0.656
COc1ccc(CN2C(=O)C(=CNc3ccc(OC)cc3)c3ccccc3C2=O)cc1 [SMR000259567] | 7.24

— BindingDB's records for doi:10.7270/Q25719FH (Srmlsc, 2007)
